Assay results: article PMC3914206

Columns and labels:
panel of 442 kinases [1] = molecular target: T1, panel of 442 kinases (Homo sapiens, UniProt O95382); type: binding; set-up: KINOMEscan: ABL1(F317L)-phosphorylated / KINOMEscan: ABL1(H396P)-nonphosphorylated / KINOMEscan: ABL1(H396P)-phosphorylated / KINOMEscan: ABL1(M351T)-phosphorylated / KINOMEscan: ABL1(T315I)-phosphorylated / KINOMEscan: ABL1-nonphosphorylated / KINOMEscan: ABL1-phosphorylated / KINOMEscan: ACVR2A / KINOMEscan: ACVR2B / KINOMEscan: ADCK3 / KINOMEscan: ADCK4 / KINOMEscan: AKT1 / KINOMEscan: AKT3 / KINOMEscan: ALK / KINOMEscan: ARK5 / KINOMEscan: AURKA / KINOMEscan: AURKC / KINOMEscan: BIKE / KINOMEscan: BMPR1A / KINOMEscan: BMPR1B / KINOMEscan: BMX / KINOMEscan: BRK / KINOMEscan: BRSK1 / KINOMEscan: BRSK2 / KINOMEscan: CAMK1 / KINOMEscan: CAMK1D / KINOMEscan: CAMK1G / KINOMEscan: CAMK2A / KINOMEscan: CAMK2B / KINOMEscan: AAK1 / KINOMEscan: CAMK2D / KINOMEscan: CAMK2G / KINOMEscan: ABL1(F317I)-nonphosphorylated / KINOMEscan: ABL1(F317I)-phosphorylated / KINOMEscan: ABL1(F317L)-nonphosphorylated: unit: % Ctrl; conditions: Compound Concentration 10 µM
T1 construct: purchased KINOMEscan
T1 sequence (O95382 1-1288): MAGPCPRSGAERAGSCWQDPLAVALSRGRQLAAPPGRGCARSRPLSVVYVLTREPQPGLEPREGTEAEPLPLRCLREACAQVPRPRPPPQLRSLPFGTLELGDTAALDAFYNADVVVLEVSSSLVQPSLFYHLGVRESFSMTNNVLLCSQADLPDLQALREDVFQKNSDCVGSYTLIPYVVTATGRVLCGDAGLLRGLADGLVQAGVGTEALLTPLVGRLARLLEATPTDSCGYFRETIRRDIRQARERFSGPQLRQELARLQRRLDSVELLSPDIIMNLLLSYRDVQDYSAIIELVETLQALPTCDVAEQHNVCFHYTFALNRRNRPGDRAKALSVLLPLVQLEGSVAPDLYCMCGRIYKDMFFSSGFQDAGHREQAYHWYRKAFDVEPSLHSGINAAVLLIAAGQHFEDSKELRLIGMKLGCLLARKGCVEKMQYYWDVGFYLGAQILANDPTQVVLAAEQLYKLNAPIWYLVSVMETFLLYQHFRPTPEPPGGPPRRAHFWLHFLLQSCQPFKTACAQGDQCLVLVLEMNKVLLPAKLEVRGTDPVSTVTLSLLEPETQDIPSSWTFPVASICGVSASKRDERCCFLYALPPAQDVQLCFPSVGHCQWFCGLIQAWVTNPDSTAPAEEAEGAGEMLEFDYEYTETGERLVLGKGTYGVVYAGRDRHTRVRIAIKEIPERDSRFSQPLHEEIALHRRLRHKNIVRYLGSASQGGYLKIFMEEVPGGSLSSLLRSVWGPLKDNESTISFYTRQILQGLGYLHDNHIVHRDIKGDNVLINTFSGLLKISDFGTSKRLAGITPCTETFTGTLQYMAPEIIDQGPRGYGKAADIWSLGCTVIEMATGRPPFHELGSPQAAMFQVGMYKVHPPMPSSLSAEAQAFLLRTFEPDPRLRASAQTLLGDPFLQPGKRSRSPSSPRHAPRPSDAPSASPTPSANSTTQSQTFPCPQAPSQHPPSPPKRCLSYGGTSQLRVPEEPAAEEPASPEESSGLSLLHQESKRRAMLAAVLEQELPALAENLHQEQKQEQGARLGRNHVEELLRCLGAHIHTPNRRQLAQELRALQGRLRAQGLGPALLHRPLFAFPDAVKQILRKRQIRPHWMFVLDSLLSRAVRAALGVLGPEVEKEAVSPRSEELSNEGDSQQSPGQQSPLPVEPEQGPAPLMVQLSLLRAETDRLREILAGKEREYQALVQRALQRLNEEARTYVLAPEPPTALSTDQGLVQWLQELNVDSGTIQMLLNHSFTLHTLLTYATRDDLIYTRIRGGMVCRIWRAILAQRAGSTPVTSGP
Description: (§1) We assessed the selectivity of members of this scaffold using the KINOMEscan methodology across a near comprehensive panel of 442 kinases [[18,27]].

panel of 442 kinases [2] = molecular target: T2, panel of 442 kinases (Homo sapiens, UniProt Q9Y243); type: binding; set-up: KINOMEscan: ABL1(F317L)-phosphorylated / KINOMEscan: ABL1(H396P)-nonphosphorylated / KINOMEscan: ABL1(H396P)-phosphorylated / KINOMEscan: ABL1(M351T)-phosphorylated / KINOMEscan: ABL1(T315I)-phosphorylated / KINOMEscan: ABL1-nonphosphorylated / KINOMEscan: ABL1-phosphorylated / KINOMEscan: ACVR2A / KINOMEscan: ACVR2B / KINOMEscan: ADCK3 / KINOMEscan: ADCK4 / KINOMEscan: AKT1 / KINOMEscan: AKT3 / KINOMEscan: ALK / KINOMEscan: ARK5 / KINOMEscan: AURKA / KINOMEscan: AURKC / KINOMEscan: BIKE / KINOMEscan: BMPR1A / KINOMEscan: BMPR1B / KINOMEscan: BMX / KINOMEscan: BRK / KINOMEscan: BRSK1 / KINOMEscan: BRSK2 / KINOMEscan: CAMK1 / KINOMEscan: CAMK1D / KINOMEscan: CAMK1G / KINOMEscan: CAMK2A / KINOMEscan: CAMK2B / KINOMEscan: AAK1 / KINOMEscan: CAMK2D / KINOMEscan: CAMK2G / KINOMEscan: ABL1(F317I)-nonphosphorylated / KINOMEscan: ABL1(F317I)-phosphorylated / KINOMEscan: ABL1(F317L)-nonphosphorylated: unit: % Ctrl; conditions: Compound Concentration 10 µM
T2 construct: purchased KINOMEscan
T2 sequence (Q9Y243 whole entry): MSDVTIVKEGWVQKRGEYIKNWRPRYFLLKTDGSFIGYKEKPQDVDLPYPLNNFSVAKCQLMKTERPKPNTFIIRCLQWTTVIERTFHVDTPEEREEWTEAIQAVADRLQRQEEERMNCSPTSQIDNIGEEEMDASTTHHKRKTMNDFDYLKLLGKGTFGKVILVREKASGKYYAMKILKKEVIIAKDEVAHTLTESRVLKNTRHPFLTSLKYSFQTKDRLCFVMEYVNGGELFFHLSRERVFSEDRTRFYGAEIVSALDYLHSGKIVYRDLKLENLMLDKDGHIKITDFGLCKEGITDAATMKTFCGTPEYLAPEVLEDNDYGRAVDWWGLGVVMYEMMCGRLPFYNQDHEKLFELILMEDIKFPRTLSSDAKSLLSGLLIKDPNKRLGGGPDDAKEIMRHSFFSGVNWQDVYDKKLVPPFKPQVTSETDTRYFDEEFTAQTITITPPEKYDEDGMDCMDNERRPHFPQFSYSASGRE
Description: as §1

CCOc1cc(C(=O)N2CCC(N3CCN(C)CC3)CC2)ccc1Nc1ncc2c(n1)N(C1CCCC1)c1ccccc1C(=O)N2C [Compound 26]
KINOMEscan: ASK2 (panel of 442 kinases [1]): 100 | KINOMEscan: AKT3 (panel of 442 kinases [2]): 84

COc1cc(C(=O)N2CCC(N3CCN(C)CC3)CC2)ccc1Nc1ncc2c(n1)N(C1CCCC1)c1ccccc1C(=O)N2C [Compound 25, 11-cyclopentyl-2-((2-methoxy-4-(4-(4-methylpiperazin-1-yl)piperidine-1-carbonyl)phenyl)amino)-5-methyl-5H-benzo[e]pyrimido[5,4-b][1,4]diazepin-6(11H)-one]
KINOMEscan: ASK2 (panel of 442 kinases [1]): 100 | KINOMEscan: AKT3 (panel of 442 kinases [2]): 100

COc1cc(C(=O)N2CCC(N3CCN(C)CC3)CC2)ccc1Nc1ncc2c(n1)N(C)c1ccccc1C(=O)N2C [15 (LRRK2-IN-1)]
KINOMEscan: ASK2 (panel of 442 kinases [1]): 100 | KINOMEscan: AKT3 (panel of 442 kinases [2]): 100
